Test results from paper PMC8907375, “Arylated analogues of cypronazole: fungicidal effect and activity on human fibroblasts. Docking analysis and molecular dynamics simulations” (Natural Products and Bioprospecting, 2022).
Converted amounts (≈) assume the structure as drawn. “And” between values parts separate entries of the source, which are not always exact repeats. Equal entries are not always repeated.

Legend:
[1] = test system: B. cinerea (isolated from grapes); test: In vitro antifungal activity, broth microdilution (MIC100); type: cell-based, Botrytis cinerea; conditions: B. cinerea
Protocol: (§1) Fungal growth was assessed at six concentrations (3.1–100 μg/mL), using enriched Czapek broth in the presence of triazole 1-8 (Fig. 2). Each treatment was carried out in triplicate. The Minimum Inhibitory Concentration (MIC100) was determined and was defined as the minimum concentration required to inhibit the complete fungal growth inhibition under the conditions of the assay. Triadimefon (TDM) and cyproconazole (CPZ) were used as positive control. In order to evaluate the efficacy of the new compounds to control fungi affecting vineyards, imperfect fungi isolated from infected grapes from the province of San Juan in Argentina were employed. Significant differences were determined by t-Student hypothesis test p, at 95% confidence. In general, moderate to good activity was observed compared to the reference compounds as well as some selectivity against microorganisms.
(§2) The imperfect fungi used for the assays included Botrytis cinerea isolated from grapevine samples, Aspergillus fumigatus (ATTC 26934), A. niger (ATCC 9029), A. ustus (PN-S4), A. japonicus (M15C), A. terreus (M16C) and Fusarium oxysporum (M15-Pa) isolated from soil samples from the province of San Juan, Argentina. The microorganisms were grown on Czapek-yeast extract agar (CYA) prepared with yeast extract, K2HPO4, saccharose, agar, distilled water and enriched with a solution of mineral salts (NaNO3, KCl, MgSO4.7H2O and FeSO4.7 H2O). Inocula were adjusted to 1–5 × 10^4 colony forming units (CFU/ mL).
(§3) The minimum inhibitory concentration (MIC) of each compound was evaluated using broth microdilution techniques in 96-well microtiter plates according to the guidelines of the National Committee for Clinical Laboratory Standards for filamentous fungi M 38 A. The starting inoculum was 1–5 × 10^4 CFU/mL in accordance with the Clinical and Laboratory Standards Institute (CLSI, formerly the National Committee for Clinical Laboratory Standards [NCCLS]) (M27-A3 document for yeasts, and M38-A2 document for filamentous fungi).
(§4) Microtiter plates were incubated at 30 °C for Aspergillus and Fusarium, and 22 °C for B. cinerea in a moist and dark chamber. MIC values were recorded after 48 h for Aspergillus and Fusarium spp., and after 72 h for B. cinerea, according to the fungal growth control. TDM and CPZ were used as positive controls (12.5–50 μg/mL). Stock solutions were two-fold diluted with RPMI from 1000 to 0.98 μg/mL (final volume equal to 100 μL), and a final DMSO concentration ≤ 1%. An inoculum suspension (100 μL) was added to each well with the exception of the sterility control. Endpoints were defined as the lowest compound concentration resulting in total growth inhibition (MIC100) compared to the growth in control wells. MICs values ≤ 50 μg/mL were considered of interest. The assay was carried out in triplicate.

[2] = test system: Aspergillus fumigatus (ATTC 26934); test: as above; type: cell-based; conditions: A. fumigatus, 30 °C, 48 h, total growth inhibition
Protocol: as §1, §2, §3, §4

[3] = test system: Fusarium oxysporum (M15-Pa); test: as above; type: cell-based; conditions: 30 °C, 48 h, total growth inhibition
Protocol: as §1, §2, §3, §4

A. japonicus (M15C) = test: as above; type: cell-based, Aspergillus japonicus; conditions: 48 h; for Fungicidal activity MIC100, AJ: A. japonicus, 30 °C, total growth inhibition
Protocol: as §1, §2, §3, §4

A. niger (ATCC 9029) = test: as above; type: cell-based, Aspergillus niger; conditions: 48 h, total growth inhibition; for Fungicidal activity MIC100, AN: 30 °C
Protocol: as §1, §2, §3, §4

A. terreus (M16C) = test: as above; type: cell-based, Aspergillus terreus; conditions: 48 h; for Fungicidal activity MIC100, AT: A. terreus, 30 °C, total growth inhibition
Protocol: as §1, §2, §3, §4

A. ustus (PN-S4) = test: as above; type: cell-based, Aspergillus ustus; conditions: 30 °C, 48 h, total growth inhibition
Protocol: as §1, §2, §3, §4

[4] = test system: human lung fibroblasts MRC-5; test: Cytotoxicity, neutral red uptake assay; type: cell-based; conditions: MRC-5 fibroblasts, 24 h exposure, neutral red uptake; ± SD; read-out: Cytotoxicity IC50
Protocol: (§5) The cytotoxic effect of the compounds, expressed as cell viability, was assessed on a permanent fibroblast cell line derived from human lung (MRC-5) (ATCC CCL-171). MRC-5 fibroblasts were grown as monolayers in minimum essential Eagle medium (MEM) with Earle’s salts, 2 mM l-glutamine and 2.2 g/L sodium bicarbonate, supplemented with 10% heat inactivated fetal bovine serum (FBS), 100 IU/mL penicillin and 100 µg/mL streptomycin in a humidified incubator with 5% CO2 in the air at 37 °C. Cell passage was maintained between 10 and 16. The medium was changed every 2 days.
(§6) Confluent cultures of MRC-5 fibroblasts were treated with medium containing the compounds at concentrations ranging from 0 to 1000 µM. For comparison purposes, the commercial antifungals CPZ and TDM were used as references, the products were first dissolved in DMSO and then in MEM, supplemented with 2% FBS. The final content of DMSO in the test medium and controls was 1%. Cells were exposed for 24 h to the test medium with or without the compound (control). Each concentration was tested in quadruplicate together with the control, and repeated three times in separate experiments. At the end of the incubation, the neutral red uptake (NRU) assay was carried out. To calculate the IC50 values (concentration that produces a 50% inhibitory effect on the evaluated parameter), the results were transformed to percentage of controls and the IC50 values were graphically obtained from the dose–response curves.

B. cinerea = test: In vivo antifungal activity on infected grapes under greenhouse conditions; design: species or system Botrytis cinerea on Vitis vinifera grapes; conditions: 7 days; for Efficacy (preventive rate) against B. cinerea on grapes: 2.5 µg/mL; for Efficacy (control effectiveness) against B. cinerea on grapes: 12.5 μg/mL
Protocol: The potential usefulness of compound 4 against B. cinerea was assessed under greenhouse conditions using infected grapes (in vivo), at 7 days of exposure. The compound was evaluated at 2.5 μg/mL and 12.5 μg/mL, CPZ was used as positive control (at 12.5 μg/mL). […] The blank control (untreated grapes) was completely affected by B cinerea (100% incidence) (Fig. 4).
The in vivo activity was determined on the Vitis vinifera grapes inoculated with a Botrytis cinerea conidia suspension. Appropriate amounts of the tested compounds were dissolved in DMSO and then suspended in the distilled water (DMSO concentration < 2%).
Healthy grapes, previously washed with a diluted solution of sodium hypochlorite, were punctured with 100 ⎧L of a solution of compound 4 (concentration of 12.5 ⎧g/mL and 2.5 ⎧g/mL) and evaporated at room temperature (~ 25 °C) during 24 h to favour the penetration of the compound. The same procedure was carried out with CPZ and the control blank (< 2% DMSO solution). The grapes epidermis was punctured with a sterile inoculation needle (Ø, 4.5 mm), 200 µL of the pathogen was inoculated at a concentration of 5.10^4 UFC/mL. The fruits were incubated at 20 °C to favour fungal growth, and fungal growth was assessed 7 days later. CPZ was used as positive control under the same conditions. The control effectiveness of the target compound was calculated as (1 − c/d) × 100, where c is the diameter of the treatment and d is the diameter of the blank control (˂ 2% DMSO solution).

[5] = Cytotoxicity, neutral red uptake assay; type: cell-based, human; conditions: human
Protocol: as §5, §6

B. cinerea hyphae = test: Effect on B. cinerea hyphal morphology (optical microscopy); type: cell-based, Botrytis cinerea; conditions: 12.5 μg/mL
Protocol: Changes in the hyphae morphology of B. cinerea treated with compound 4 were observed using optical microscopy.
The same procedure was carried out with CPZ and blank control (< 2% DMSO solution).

[6] = 22 °C, 72 h, total growth inhibition

Compound | Fungicidal activity MIC100, BC [1, 6] [mg/L] | Fungicidal activity MIC100, AF [2] | Fungicidal activity MIC100, F [3] [mg/L] | Fungicidal activity MIC100, AJ (A. japonicus (M15C)) [mg/L] | Fungicidal activity MIC100, AN (A. niger (ATCC 9029)) [mg/L] | Fungicidal activity MIC100, AT (A. terreus (M16C)) | Fungicidal activity MIC100, AU (A. ustus (PN-S4)) [mg/L] | IC50 [4] [µM] | Efficacy (preventive rate) against B. cinerea on grapes (B. cinerea) [%] | Efficacy (control effectiveness) against B. cinerea on grapes (B. cinerea) [%] | MIC100 (complete growth inhibition) ([1]; Botrytis cinerea, 22 °C, 72 h, total growth inhibition, read-out: Fungicidal activity MIC100, BC) [mg/L] | MIC ([1]; Botrytis cinerea, molar conversion of the µg/mL value, read-out: MIC100 against B. cinerea expressed) [µM] | Minimum inhibitory concentration (MIC100) ([2]; Aspergillus fumigatus, read-out: Fungicidal activity MIC100, AF) [mg/L] | MIC100 (minimum concentration for complete growth inhibition) ([3]; Fusarium oxysporum, F. oxysporum, read-out: Fungicidal activity MIC100, F) [mg/L] | MIC (A. japonicus (M15C); read-out: Fungicidal activity MIC100, AJ) [mg/L] | MIC100 (complete growth inhibition) (A. niger (ATCC 9029); Aspergillus niger, ATCC9029, 30 °C, read-out: Fungicidal activity MIC100, AN) [mg/L] | MIC100 (complete growth inhibition) (A. terreus (M16C); Aspergillus terreus, read-out: Fungicidal activity MIC100, AT, A. terreus, 30 °C, total growth inhibition) [mg/L] | MIC100 (complete growth inhibition) (A. ustus (PN-S4); Aspergillus ustus, read-out: Fungicidal activity MIC100, AU) [mg/L] | IC50 at 24 h [5] [µM] | Hyphal morphology of B. cinerea (B. cinerea hyphae)
1-(4-chlorophenyl)-3-cyclopropyl-2-(1H-1,2,4-triazol-1-yl)butan-1-ol [CPZ, reference compound] | 12.5 ± 0.8 | 25 mg/L and 25 ± 1.4 mg/L | ≥ 100 | 25 ± 1.3 | 25 ± 1.5 | 15.0 mg/L and 15 ± 0.9 mg/L | 15 ± 0.7 | 267 ± 18.7 | 38.3 | 75.3 |  |  |  |  |  |  |  |  |  | 
CC(C1CC1)C(O)(Cn1cncn1)c1ccc(-c2ccc(F)cc2)cc1 (stereo not shown) [Compound 4, 3-Cyclopropyl-2-(4’-fluorobiphenyl-4-yl)-1-(1H-1,2,4-triazol1-yl)butan-2-ol] | 12.5 ± 0.9 | 12.5 ± 0.8 mg/L |  | 15 ± 0.7 | 10 ± 0.5 | 10 ± 0.4 mg/L | 14 ± 0.7 |  | 50.6 | 100 | 12.5 (≈ 35.6 µM) | 35.5 (≈ 12.5 µg/mL) | 12.5 (≈ 35.6 µM) | ≥ 100 | 15 (≈ 42.7 µM) | 10 (≈ 28.5 µM) | 10 (≈ 28.5 µM) | 14 (≈ 39.8 µM) | 61.1 ± 3.7 | morphological alterations, including irregular hyphae, variable diameter and the presence of internal vacuoles
